Laboratory results taken from patent publication US20230143604A1, “QW DOSING OF GIP RECEPTOR AGONIST PEPTIDE COMPOUNDS AND USES THEREOF” (TAKEDA PHARMACEUTICAL COMPANY LIMITED, priority 2020, published 2023).
Starred links: 1 amine or outer side, 2 acyl side, 3 side chain; linkers in the order of their positions; H or OH if unused. Non-standard residues stand in square brackets, D forms with d. Residues, ends and D or L forms follow the SMILES beside them. Groups on a side chain read outwards from the residue. *: point of attachment. C18 diacid = O=C(O)CCCCCCCCCCCCCCCCC(=O)*; C17 diacid = O=C(O)CCCCCCCCCCCCCCCC(=O)*; γGlu = O=C(O)[C@H](CCC(=O)[*:2])N[*:1]; NMeY = CN[C@@H](Cc1ccc(O)cc1)C(=O)O; AEEA = NCCOCCOCC(=O)O; Aib = CC(C)(N)C(=O)O

Experiment: physchem
Summary of the method: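 Solubility at pH 7.4 determined by stepwise addition of 200 mM phosphate buffer in 100 μL increments to 3 mg peptide, mixing briefly each time, until no insoluble material remained, then measured by liquid chromatography.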

Work on `CC[C@H](C)[C@H](NC(=O)[C@H](CO)NC(=O)[C@H](Cc1ccc(O)cc1)NC(=O)[C@H](CC(=O)O)NC(=O)[C@H](CO)NC(=O)[C@@H](NC(=O)[C@H](Cc1ccccc1)NC(=O)[C@@H](NC(=O)CNC(=O)[C@H](CCC(=O)O)NC(=O)C(C)(C)NC(=O)[C@H](Cc1ccc(O)cc1)NC)[C@@H](C)O)[C@@H](C)CC)C(=O)N[C@@H](C)C(=O)N[C@@H](CCCCNC(=O)CNC(=O)CNC(=O)CNC(=O)CNC(=O)CNC(=O)CCCCCCCCCCCCCCCCC(=O)O)C(=O)N[C@@H](CC(=O)O)C(=O)N[C@@H](CCCNC(=N)N)C(=O)NC(C)(C)C(=O)N[C@@H](C)C(=O)N[C@@H](CCC(N)=O)C(=O)NC(C)(C)C(=O)N[C@@H](CC(=O)O)C(=O)N[C@@H](Cc1ccccc1)C(=O)N[C@H](C(=O)N[C@@H](CCC(=O)O)C(=O)N[C@@H](Cc1c[nH]c2ccccc12)C(=O)N[C@@H](CC(C)C)C(=O)N[C@@H](CC(C)C)C(=O)N[C@@H](C)C(=O)N[C@@H](CCC(N)=O)C(=O)N[C@@H](CO)C(=O)N1CCC[C@H]1C(=O)NCC(=O)O)C(C)C` [Compound 118] yielded a solubility (pH 7.4) of at least 15 mg/mL and a solubility (pH 7.4, aqueous buffer) of at least 30 mg/mL.
`CC[C@H](C)[C@H](NC(=O)[C@H](CO)NC(=O)[C@H](Cc1ccc(O)cc1)NC(=O)[C@H](CC(=O)O)NC(=O)[C@H](CO)NC(=O)[C@@H](NC(=O)[C@H](Cc1ccccc1)NC(=O)[C@@H](NC(=O)CNC(=O)[C@H](CCC(=O)O)NC(=O)C(C)(C)NC(=O)[C@H](Cc1ccc(O)cc1)NC)[C@@H](C)O)[C@@H](C)CC)C(=O)N[C@@H](C)C(=O)N[C@@H](CC(C)C)C(=O)N[C@@H](CC(=O)O)C(=O)N[C@@H](CCCNC(=N)N)C(=O)NC(C)(C)C(=O)N[C@@H](C)C(=O)N[C@@H](CCC(N)=O)C(=O)NC(C)(C)C(=O)N[C@@H](CCCCNC(=O)COCCOCCNC(=O)COCCOCCNC(=O)CC[C@H](NC(=O)CC[C@H](NC(=O)CCCCCCCCCCCCCCCCC(=O)O)C(=O)O)C(=O)O)C(=O)N[C@@H](Cc1ccccc1)C(=O)N[C@H](C(=O)N[C@@H](CCC(=O)O)C(=O)N[C@@H](Cc1c[nH]c2ccccc12)C(=O)N[C@@H](CC(C)C)C(=O)N[C@@H](CC(C)C)C(=O)N[C@@H](C)C(=O)N[C@@H](CCC(N)=O)C(=O)N[C@@H](CO)C(=O)N1CCC[C@H]1C(=O)NCC(=O)O)C(C)C` [Compound 119] (H-[NMeY][Aib]EGTFISDYSIALDR[Aib]AQ[Aib]K([AEEA-AEEA-γGlu-γGlu-C18 diacid])FVEWLLAQSPG-OH) showed a solubility (pH 7.4) of at least 15 mg/mL and a solubility (pH 7.4, aqueous buffer) of at least 30 mg/mL.
With `CC[C@H](C)[C@H](NC(=O)[C@H](CO)NC(=O)[C@H](Cc1ccc(O)cc1)NC(=O)[C@H](CC(=O)O)NC(=O)[C@H](CO)NC(=O)[C@@H](NC(=O)[C@H](Cc1ccccc1)NC(=O)[C@@H](NC(=O)CNC(=O)[C@H](CCC(=O)O)NC(=O)C(C)(C)NC(=O)[C@H](Cc1ccc(O)cc1)NC)[C@@H](C)O)[C@@H](C)CC)C(=O)N[C@@H](C)C(=O)N[C@@H](CC(C)C)C(=O)N[C@@H](CC(=O)O)C(=O)N[C@@H](CCCNC(=N)N)C(=O)NC(C)(C)C(=O)N[C@@H](C)C(=O)N[C@@H](CCC(N)=O)C(=O)NC(C)(C)C(=O)N[C@@H](CCCCNC(=O)COCCOCCNC(=O)COCCOCCNC(=O)CC[C@H](NC(=O)CC[C@H](NC(=O)CCCCCCCCCCCCCCCC(=O)O)C(=O)O)C(=O)O)C(=O)N[C@@H](Cc1ccccc1)C(=O)N[C@H](C(=O)N[C@@H](CC(N)=O)C(=O)N[C@@H](Cc1c[nH]c2ccccc12)C(=O)N[C@@H](CC(C)C)C(=O)N[C@@H](CC(C)C)C(=O)N[C@@H](C)C(=O)N[C@@H](CCC(N)=O)C(=O)N[C@@H](CO)C(=O)N1CCC[C@H]1C(=O)NCC(=O)O)C(C)C` [Compound 125] (H-[NMeY][Aib]EGTFISDYSIALDR[Aib]AQ[Aib]K([AEEA-AEEA-γGlu-γGlu-C17 diacid])FVNWLLAQSPG-OH) the solubility (pH 7.4) was at least 15 mg/mL and the solubility (pH 7.4, aqueous buffer) was at least 30 mg/mL.
